Assay results published in US12171230B2, “Herbicidal compositions” (Bayer Aktiengesellschaft, priority 2018, dated 2024).
Values joined by “and” are separate entries in the source; they are usually repeats but may differ in a detail not shown here. Equal entries are not always repeated.

How the values were obtained:
Type in all cases: in vivo
Amaranthus palmeri = experiment: Post-emergence herbicidal action against Amaranthus palmeri; details: 21 DAT; (res.); 50 g a.i./ha
Procedure, shortened: (§1)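 Seeds or rhizome pieces were grown in sandy loam in pots in a greenhouse, and plants were sprayed at the three-leaf stage, three weeks after sowing. Spray powders or emulsion concentrates were applied in various dosages at 300 to 800 l/ha water. Efficacy was scored visually after 3 to 4 weeks against untreated controls.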

Polygonum convolvulus = experiment: Post-emergence herbicidal action against Polygonum convolvulus; details: 21 DAT; 50 g a.i./ha
Matricaria inodora = experiment: Post-emergence herbicidal action against Matricaria inodora
Lamium purpureum = experiment: Post-emergence herbicidal action against Lamium purpureum
Procedure, shortened: as §1

Bromus sterilis = experiment: Post-emergence herbicidal action against Bromus sterilis
Alopecurus myosuroides = experiment: Post-emergence herbicidal action against Alopecurus myosuroides
Sorghum halepense = experiment: Post-emergence herbicidal action against Sorghum halepense; details: 21 DAT
Method: (§2) When the observed efficacies exceed the formal sum total of the values of the tests with individual applications, they also exceed the expected value according to Colby, which is calculated using the formula below and is likewise regarded as an indication of synergism (cf. S. R. Colby; in Weeds 15 (1967) p. 20 to 22): E^C=A+B−([…])
(§3) Here: • A=efficacy of the active compound (A) in % at an application rate of a g a.i./ha; • B=efficacy of the active compound (B) in % at an application rate of b g a.i./ha; • E^C=expected value of the effect of the combination (A)+(B) in % at the combined application rate a+b g a.i./ha.
(§4) Seeds or rhizome pieces of mono- and dicotyledonous weeds are placed in sandy loam in pots, covered with soil and grown in a greenhouse under good growth conditions (temperature, air humidity, water supply). Three weeks after sowing, the test plants were treated at the three-leaf stage with the compositions according to the invention. The compositions according to the invention formulated as spray powders or as emulsion concentrates were sprayed onto the green plant parts in various dosages with an application rate of 300 to 800 l/ha of water (equivalent). After the test plants have been left to stand in the greenhouse under optimal growth conditions for about 3 to 4 weeks, the action of the preparations is scored visually in comparison to untreated controls. The compositions according to the invention also have good post-emergence herbicidal activity against a broad spectrum of economically important gramineous and broadleaf weeds.

Lolium rigidum = experiment: Post-emergence herbicidal action against Lolium rigidum
Poa annua = experiment: Post-emergence herbicidal action against Poa annua
Procedure, shortened: as §1

Digitaria sanguinalis = experiment: Post-emergence herbicidal action against Digitaria sanguinalis; details: 21 DAT; 50 g a.i./ha
Procedure, shortened: as §1

Echinochloa crus-galli = experiment: Post-emergence herbicidal action against Echinochloa crus-galli; details: 21 DAT; 50 g a.i./ha
Method: as §2, §3, §4

Veronica hederifolia = experiment: Post-emergence herbicidal action against Veronica hederifolia; details: 28 DAT; 450 g a.i./ha
Bidens pilosa = experiment: Post-emergence herbicidal action against Bidens pilosa; details: 21 DAT
Procedure, shortened: as §1

Kochia scoparia = experiment: Post-emergence herbicidal action against Kochia scoparia; details: 21 DAT
Centaurea cyano = experiment: Post-emergence herbicidal action against Centaurea cyano
Procedure, shortened: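 Greenhouse pot-grown plants sprayed post-emergence at the three-leaf stage, three weeks after sowing, with spray-powder or emulsion-concentrate formulations at various dosages in 300 to 800 l/ha water on green parts.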

Phalaris minor = experiment: Post-emergence herbicidal action against Phalaris minor

`O=C(O)CNCP(=O)(O)O` [(B7.5) Glyphosate] was tested, and the Herbicidal action (Amaranthus palmeri) was 60%, the Herbicidal action (Polygonum convolvulus) was 10% and the Herbicidal action (Matricaria inodora; 14 DAT, 50 g a.i./ha) was 40% and 50%. For the same molecule, the Herbicidal action (Matricaria inodora; 28 DAT, 450 g a.i./ha) was 80%, the Herbicidal action (Lamium purpureum; 14 DAT, 50 g a.i./ha) was 50% and the Herbicidal action (Lamium purpureum; 28 DAT, 50 g a.i./ha) was 30%. For the same molecule, the Herbicidal action (Lamium purpureum; 28 DAT, 150 g a.i./ha) was 40%, the Herbicidal action (Lamium purpureum; 28 DAT, 450 g a.i./ha) was 75% and the Herbicidal action (Bromus sterilis; 14 DAT, 50 g a.i./ha) was 30%. For the same molecule, the Herbicidal action (Bromus sterilis; 28 DAT, 150 g a.i./ha) was 40%, the Herbicidal action (Alopecurus myosuroides; 14 DAT, 50 g a.i./ha) was 30% and the Herbicidal action (Alopecurus myosuroides; 28 DAT, 50 g a.i./ha) was 10%. For the same molecule, the Herbicidal action (Alopecurus myosuroides; 28 DAT, 150 g a.i./ha) was 30%, the Herbicidal action (Alopecurus myosuroides; 28 DAT, 450 g a.i./ha) was 60% and the Herbicidal action (Sorghum halepense; 50 g a.i./ha) was 30%. It also gave a Herbicidal action (Sorghum halepense; 150 g a.i./ha) of 70%, a Herbicidal action (Sorghum halepense; 450 g a.i./ha) of 85% and a Herbicidal action (Lolium rigidum; 14 DAT, 50 g a.i./ha) of 40%. The Herbicidal action (Lolium rigidum; 14 DAT, resistant biotype, 50 g a.i./ha) was 20%, the Herbicidal action (Lolium rigidum; 28 DAT, 50 g a.i./ha) was 30% and the Herbicidal action (Lolium rigidum; 28 DAT, 150 g a.i./ha) was 60%. The Herbicidal action (Poa annua; 14 DAT, 50 g a.i./ha) was 20%, the Herbicidal action (Poa annua; 28 DAT, 50 g a.i./ha) was 30% and the Herbicidal action (Poa annua; 28 DAT, 150 g a.i./ha) was 50% and 60%. For the same molecule, the Herbicidal action (Poa annua; 28 DAT, 450 g a.i./ha) was 60%, the Herbicidal action (Digitaria sanguinalis) was 80% and the Herbicidal action (Echinochloa crus-galli) was 45%. The Herbicidal action (Veronica hederifolia) was 90%, the Herbicidal action (Bidens pilosa; 150 g a.i./ha) was 75% and the Herbicidal action (Bidens pilosa; 450 g a.i./ha) was 85%. It also gave a Herbicidal action (Kochia scoparia; 50 g a.i./ha) of 35%, a Herbicidal action (Kochia scoparia; 150 g a.i./ha) of 20% and a Herbicidal action (Centaurea cyano; 14 DAT, 50 g a.i./ha) of 30%. The Herbicidal action (Centaurea cyano; 14 DAT, 150 g a.i./ha) was 60%, the Herbicidal action (Centaurea cyano; 28 DAT, 50 g a.i./ha) was 30% and the Herbicidal action (Centaurea cyano; 28 DAT, 150 g a.i./ha) was 60%. The Herbicidal action (Centaurea cyano; 28 DAT, 450 g a.i./ha) was 85%, the Herbicidal action (Phalaris minor; 14 DAT, 50 g a.i./ha) was 30% and the Herbicidal action (Phalaris minor; 14 DAT, 450 g a.i./ha) was 80%. The Herbicidal action (Phalaris minor; 28 DAT, 450 g a.i./ha) was 30%.
